In data set [1] the test system is large triple-negative breast cancer PDX model tumors. The data set is described as follows: Experiment against large tumors in vivo after multiple times of administration. Details: species or system mice. The conditions noted are these: Docetaxel alone, 20 mg/kg once every seven days, two times. As for the experimental part:
Six mice with a tumor size of 400-500 mm^3 in a triple-negative breast cancer PDX model were randomly divided into two groups. In the experiment, the two groups were injected with a clinical first-line chemotherapy drug, Docetaxel and a c-Met targeted aptamer drug conjugate c-Met-ApDC through the tail vein, respectively, at a dosage of 20 mg/kg Docetaxel (administrated once every seven days, for two times in total) or 0.36 mg/kg equivalent of MMAE (administrated once every four days, for three times in total).
The weights of the mice, the lengths of tumors (a), and the widths of tumors (b) were measured and recorded at each injection. The calculation formula of tumor volume (V) was: V=(a×b^2)/2. The tumor volume exceeding 1,500 mm^3 or the weight loss exceeding 15% was taken as an endpoint of the experiment. The mice were euthanized, and the experiment was terminated. In the group administrated with Docetaxel, 0.36 mg/kg equivalent of MMAE was injected into the mice through the tail vein once every four days continuously for three times after the tumor volume exceeded 1,500 mm^3. […] It was almost less than 200 mm^3 after 44 days.

Data set [2] shares this test system. The data set can be described thus: Experiment against large tumors in vivo (triple-negative breast cancer PDX). Further details: species or system mice. Conditions: tumor 400-500 mm^3; tail vein, 20 mg/kg once every seven days, two times. As for the experimental part: Six mice with a tumor size of 400-500 mm^3 in a triple-negative breast cancer PDX model were randomly divided into two groups. In the experiment, the two groups were injected with a clinical first-line chemotherapy drug Docetaxel, and a c-Met targeted aptamer drug conjugate c-Met-ApDC through the tail vein, respectively at a dosage of 20 mg/kg Docetaxel (administrated once every seven days, for two times in total) or 0.36 mg/kg equivalent of MMAE (administrated once every four days, for three times in total). The weights of the mice, the lengths of tumors (a), and the widths of tumors (b) were measured and recorded at each injection. The calculation formula of tumor volume (V) was: V=(a×b^2)/2. The tumor volume exceeding 1,500 mm^3 or the weight loss exceeding 15% was taken as an endpoint of the experiment. The mice were euthanized, and the experiment was terminated. […] On about seven days of administration, the tumor volume in the group administrated with the chemotherapeutic drug began to increase, while the tumor of the group administrated with the reagent of the present invention began to decrease.

In data set [3] the target is T1, c-Met (hepatocyte growth factor receptor) (UniProt P08581 P08581:25-932). The data set is described as follows: SPR; concentrations 100-500 nM. As for the experimental part: (§1) The specific experimental process was as follows: the c-Met protein-bound aptamer CLN0004-52 (sequence SEQ: ID2: […]) reported in the literature was selected and modified with a mercapto group at the 3-terminal and then conjugated with vcMMAE to construct the c-Met targeted aptamer drug conjugate CLN0004-52-MMAE. The affinity of CLN0004-52-MMAE and SL1-MMAE with a c-Met protein was characterized by surface plasmon resonance spectroscopy. The binding forces of two c-Met ApDCs were determined at concentrations of 100, 200, 300, 400, and 500 nM. […] Strong affinity stated that it could bind with c-Met more strongly, enhancing the therapeutic effect.

Data set [4] deals with T1, c-Met (hepatocyte growth factor …). The data set is described as follows: SPR; concentrations 100-500 nM; unit μm [sic]. As for the experimental part: as §1
A general note: SPR reads the build-up and loss of mass on a sensor chip optically.

T1 sequence (P08581 25-932, one chain of several): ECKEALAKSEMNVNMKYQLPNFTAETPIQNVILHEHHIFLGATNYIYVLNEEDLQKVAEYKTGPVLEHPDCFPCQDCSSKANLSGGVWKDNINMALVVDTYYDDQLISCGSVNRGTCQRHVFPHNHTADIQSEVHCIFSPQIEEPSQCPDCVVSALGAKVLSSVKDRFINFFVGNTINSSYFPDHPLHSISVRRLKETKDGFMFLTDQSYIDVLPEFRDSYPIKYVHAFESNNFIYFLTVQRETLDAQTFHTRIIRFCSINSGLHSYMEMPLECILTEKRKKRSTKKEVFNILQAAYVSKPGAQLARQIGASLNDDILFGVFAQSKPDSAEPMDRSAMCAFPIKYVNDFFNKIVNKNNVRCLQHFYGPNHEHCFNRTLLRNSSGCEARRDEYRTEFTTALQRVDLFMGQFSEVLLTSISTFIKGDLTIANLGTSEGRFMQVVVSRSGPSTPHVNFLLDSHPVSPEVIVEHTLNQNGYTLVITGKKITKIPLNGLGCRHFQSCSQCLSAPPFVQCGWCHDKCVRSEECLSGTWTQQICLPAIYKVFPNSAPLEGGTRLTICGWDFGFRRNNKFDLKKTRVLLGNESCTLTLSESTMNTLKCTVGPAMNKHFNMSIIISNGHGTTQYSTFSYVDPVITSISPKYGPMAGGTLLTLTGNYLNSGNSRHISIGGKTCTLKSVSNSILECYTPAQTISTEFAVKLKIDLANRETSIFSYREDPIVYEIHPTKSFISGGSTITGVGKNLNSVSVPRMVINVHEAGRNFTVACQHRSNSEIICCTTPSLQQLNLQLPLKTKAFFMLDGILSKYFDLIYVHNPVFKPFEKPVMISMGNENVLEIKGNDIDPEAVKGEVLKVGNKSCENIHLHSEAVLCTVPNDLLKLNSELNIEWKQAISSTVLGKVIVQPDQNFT

For `CC(=O)O[C@@]12CO[C@@H]1C[C@H](O)[C@@]1(C)C(=O)[C@H](O)C3=C(C)[C@@H](OC(=O)[C@H](O)[C@@H](NC(=O)OC(C)(C)C)c4ccccc4)C[C@@](O)([C@@H](OC(=O)c4ccccc4)[C@H]21)C3(C)C` [Docetaxel], the tumor volume course result in data set [1] is reported as “gradually increased”. In addition, in data set [2], the “inhibitory effect on large tumors” value was “no apparent inhibitory effect” and the tumor volume increase is 3 times the volume.
The Kd is the constant that tells how readily two partners part at equilibrium. A low value points to a tighter complex. Turning to ATCAGGCTGGATGGTAGCTCGGTCGGGGTGGGTGGGTTGGCAAGTCTGAT (ssDNA, 3'-thiol conjugated to maleimide vcMMAE) [SL1-MMAE (c-Met-ApDC)], in data set [3], the dissociation constant Kd turned out to be 0.0775 µM. This lies in the double-digit nanomolar range.

B1: CLN0004-52-MMAE (ssDNA)
DNA: GAGTGCGTAATGGTACGATTTGGGAAGTGGCTTGGGGTGGGATTAGTTTTGG
modifications: 3'-thiol conjugated to maleimide vcMMAE
In data set [4], B1 showed a Kd of 21.5 µM.

Source of the values: patent US20240269295A1, “C-MET TARGETED APTAMER DRUG CONJUGATE AND METHOD FOR TREATING TUMOR” (Hangzhou Institute of Medicine, Chinese Academy of Sciences, priority 2023, published 2024).
